# Results taken from BindingDB's records for doi:10.1074/jbc.M114.564278 (University of Michigan, 2014).
# Where a SMILES comes first, the peptide text is derived from it. [ ]: non-standard residue; d: D form. The star is where a group is joined. X1 = O=C(O)c1cc(NC(=S)*)ccc1-c1c2ccc(=O)cc-2oc2cc(O)ccc12; Ala(3-Me-diazirin-3-yl) = CC1(C[C@H](N)C(=O)O)N=N1; βAla = NCCC(=O)O
# What was measured:
# [1] = target: T1, UDP-3-O-(3-hydroxymyristoyl)glucosamine N-acyltransferase (Escherichia coli (strain K12), UniProt P21645); test: Fluorescence Polarization Assay; settings: pH 8
# T1 sequence (P21645 whole entry): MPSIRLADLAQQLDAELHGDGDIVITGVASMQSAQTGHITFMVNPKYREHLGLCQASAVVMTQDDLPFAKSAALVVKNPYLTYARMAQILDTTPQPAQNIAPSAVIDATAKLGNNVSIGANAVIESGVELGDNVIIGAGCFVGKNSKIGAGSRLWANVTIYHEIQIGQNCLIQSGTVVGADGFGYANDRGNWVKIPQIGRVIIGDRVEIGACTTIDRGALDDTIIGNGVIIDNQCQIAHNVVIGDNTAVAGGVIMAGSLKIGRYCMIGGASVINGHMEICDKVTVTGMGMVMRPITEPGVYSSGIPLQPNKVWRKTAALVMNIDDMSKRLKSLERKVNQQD
# Method: (§1) The fluorescence polarization assay was performed as previously described [Jenkins et al., ACS Chem. Biol., 7:1170-1177]. In 384-well black Costar plates, LpxA or His6-LpxD were serially diluted while holding the fluorescent peptide at 20 nM in a final volume of 50 μl in 20mM HEPES pH 8.0 (0.01% DMSO). The wells were gently mixed and incubated at 30 °C in the dark for 15 min. Polarization was measured on a SpectraMax M5 plate reader in triplicate with readings taken at λex = 485 nm and λem = 525 nm.
# [2] = target: T2, Acyl-[acyl-carrier-protein]--UDP-N-acetylglucosamine O-acyltransferase (Escherichia coli (strain K12), UniProt P0A722); test: Fluorescence Polarization Assay; settings: pH 8
# T2 sequence (P0A722 whole entry): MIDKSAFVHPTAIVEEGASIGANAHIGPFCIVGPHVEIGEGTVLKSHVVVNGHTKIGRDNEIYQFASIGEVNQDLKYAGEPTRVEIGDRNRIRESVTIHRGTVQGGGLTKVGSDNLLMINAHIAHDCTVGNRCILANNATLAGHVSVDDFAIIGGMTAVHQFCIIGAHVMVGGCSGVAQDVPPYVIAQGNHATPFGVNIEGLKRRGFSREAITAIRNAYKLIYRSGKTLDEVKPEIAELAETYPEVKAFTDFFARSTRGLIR
# Method: as §1
Compound,Kd [1] [µM],Kd [2] [µM]
CC[C@H](C)[C@H](NC(=O)[C@H](CC(=O)O)NC(=O)[C@H](Cc1c[nH]c2ccccc12)NC(=O)[C@H](CCCCN)NC(=O)[C@@H]1CCCN1C(=O)[C@H](CC(C)C)NC(=O)[C@H](CCSC)NC(=O)[C@H](Cc1ccc(O)cc1)NC(=O)[C@H](CC1(C)N=N1)NC(=O)[C@H](CC(N)=O)NC(=O)[C@@H](NC(=O)CCNC(=S)Nc1ccc(-c2c3ccc(=O)cc-3oc3cc(O)ccc23)c(C(=O)O)c1)[C@@H](C)O)C(=O)N1CCC[C@H]1C(N)=O [FITC-(βa)TN(L-photoleucine)YMLPKWDIP-CONH2] ({X1-βAla}-TN[Ala(3-Me-diazirin-3-yl)]YMLPKWDIP-NH2),2.1,50
CC[C@H](C)[C@H](NC(=O)[C@H](CC(=O)O)NC(=O)[C@H](Cc1c[nH]c2ccccc12)NC(=O)[C@H](CCCCN)NC(=O)[C@@H]1CCCN1C(=O)[C@H](CC1(C)N=N1)NC(=O)[C@H](CCSC)NC(=O)[C@H](Cc1ccc(O)cc1)NC(=O)[C@H](CC(C)C)NC(=O)[C@H](CC(N)=O)NC(=O)[C@@H](NC(=O)CCNC(=S)Nc1ccc(-c2c3ccc(=O)cc-3oc3cc(O)ccc23)c(C(=O)O)c1)[C@@H](C)O)C(=O)N1CCC[C@H]1C(N)=O [FITC-(βa)TNLYM(L-photoleucine)PKWDIP-CONH2] ({X1-βAla}-TNLYM[Ala(3-Me-diazirin-3-yl)]PKWDIP-NH2),1.1,32
CSCC[C@H](NC(=O)[C@H](Cc1ccc(O)cc1)NC(=O)[C@H](CC(C)C)NC(=O)[C@H](CC(N)=O)NC(=O)[C@@H](NC(=O)CCNC(=S)Nc1ccc(-c2c3ccc(=O)cc-3oc3cc(O)ccc23)c(C(=O)O)c1)[C@@H](C)O)C(=O)N[C@@H](CC(C)C)C(N)=O [FITC-(βa)TNLYML-CONH2] ({X1-βAla}-TNLYML-NH2),22,12
CSCC[C@H](NC(=O)[C@H](Cc1ccc(O)cc1)NC(=O)[C@H](CC(C)C)NC(=O)[C@H](CC(N)=O)NC(=O)[C@@H](NC(=O)CCNC(=S)Nc1ccc(-c2c3ccc(=O)cc-3oc3cc(O)ccc23)c(C(=O)O)c1)[C@@H](C)O)C(=O)N[C@@H](CC(C)C)C(=O)O [FITC-(βa)TNLYML-COOH] ({X1-βAla}-TNLYML-OH),36,4.4
CSCC[C@H](NC(=O)[C@H](Cc1ccc(O)cc1)NC(=O)[C@H](CC(C)C)NC(=O)[C@H](CC(N)=O)NC(=O)[C@@H](NC(=O)CCNC(=S)Nc1ccc(-c2c3ccc(=O)cc-3oc3cc(O)ccc23)c(C(=O)O)c1)[C@@H](C)O)C(=O)N[C@@H](CC(C)C)C(=O)N1CCC[C@H]1C(=O)N[C@@H](CCCCN)C(=O)N[C@@H](Cc1c[nH]c2ccccc12)C(=O)N[C@@H](CC(=O)O)C(=O)N[C@@H](CC1(C)N=N1)C(=O)N1CCC[C@H]1C(N)=O [FITC-(βa)TNLYMLPKWD(L-photoleucine)P-CONH2] ({X1-βAla}-TNLYMLPKWD[Ala(3-Me-diazirin-3-yl)]P-NH2),0.8,22
CC[C@H](C)[C@H](NC(=O)[C@H](CC(=O)O)NC(=O)[C@H](Cc1c[nH]c2ccccc12)NC(=O)[C@H](CCCCN)NC(=O)[C@@H]1CCCN1C(=O)[C@H](CC(C)C)NC(=O)[C@H](CCSC)NC(=O)[C@H](Cc1ccc(O)cc1)NC(=O)[C@H](CC(C)C)NC(=O)[C@H](CC(N)=O)NC(=O)[C@@H](NC(=O)CCNC(=S)Nc1ccc(-c2c3ccc(=O)cc-3oc3cc(O)ccc23)c(C(=O)O)c1)[C@@H](C)O)C(=O)N1CCC[C@H]1C(N)=O [FITC-(βa)TNLYMLPKWDIP-CONH2] ({X1-βAla}-TNLYMLPKWDIP-NH2),0.6,17
H-TNLYML-NH2 [RJPXD33Δ6],–,23
H-TNLYML-OH [RJPXD33Δ6-COOH],–,2.1
